From patent publication US9499868B2, “Determination of single nucleotide polymorphisms useful to predict response for glatiramer acetate” (TEVA PHARMACEUTICAL INDUSTRIES, LTD., priority 2011, dated 2016)
Read-outs that look alike come from different tables or passages of the source.

Key:
[1] = test system: Relapsing-remitting multiple sclerosis patients (FORTE cohort); experiment: Annualized relapse rate in FORTE cohort patients genetically predicted as responders/non-responders by predictive models; type: in vivo, human
Experimental: Relapsing-remitting multiple sclerosis patients were treated with either 20 mg GA or 40 mg GA daily in the Teva FORTE clinical trial (www.medicalnewstoday.com/articles/48863.php). Blood samples were drawn from each subject that signed an informed consent for the pharmacogenetic study and analyzed as described below.
A clinical relapse was defined as the appearance of one or more new neurological abnormalities or the reappearance of one or more previously observed neurological abnormalities.
To find genotypic profiles that discriminate responders (R) from the non-responders (NR) to the treatment, we used a backward stepwise logistic regression procedure on the SNPs that emerged significant using the narrow definition (e.g., at p-value=10^−4 or lower). Other models were generated based on combinatorial optimization heuristics. Once a pool of models was created, selected models were chosen based on the low value of Akaike's Information Criterion (AIC) and low number SNPs in the model. The model chosen in the previous step went through “Leave one out” cross validation, searching for high values of the Area Under the ROC curve.
The response probability p(Response) of a specific patient was calculated according to the tables and formulas indicated for each specific model.
Patients with p(Response) above 0.5 were predicted to be responders and patients with p(Response) below 0.5 were predicted to be non-responders. When the model was retrospectively applied to the full cohort of 599 FORTE patients, we observed that the annualized relapse rate (ARR) in patients genetically predicted as responders was reduced by 62% compared to all patients, and by 76% compared to non-responders (p<0.0001). When we applied the model retrospectively to a second independent cohort of 79 patients, the model could identify subpopulations genetically predicted to be responders and non-responders with respectively lower (for responders) and higher (for non-responders) relapse rate. In the placebo-treated arm no specific pattern could be observed.
The models were retrospectively applied to the full cohort of 599 FORTE patients using different predictive thresholds. The ratios between the Annualized Relapse Rate (ARR) of genetically predicted responder patients (R) compared to the average ARR in genetically predicted non-responder patients (NR), and the ratios between the average ARE observed in the genetically predicted responder patients (R) compared to average ARR in the whole study population (All), according to each predictive threshold or two predictive thresholds, are presented in table 37. […]

[2] = test system: multiple sclerosis patients (European/Canadian study); experiment: Annualized relapse rate in European/Canadian study patients genetically predicted as responders/non-responders by FM1 model; type: in vivo, human; settings: 0.8 threshold
Description: In comparison, the average ARR in either placebo-treated patients or non treated patients (from European/Canadian study and CORAL, respectively) genetically predicted as responders was −7% and 26% lower, respectively, than in patients predicted as Non-Responders and 10% and 11% lower than in the whole study population. The reduction in average ARR by GA over placebo-treated patients in the responders population in the European/Canadian study was 79%.

RRMS patients = settings: cited from earlier work
RRMS subjects = settings: cited from earlier work
[3] = FM1 model, 0.8 threshold, FORTE
[4] = model GM2068, FORTE cohort, whole study population (All)
[5] = model GM2090, FORTE cohort, whole study population (All)
[6] = model GM2094, FORTE cohort, whole study population (All)
[7] = model GM2277, FORTE cohort, whole study population (All)

Q: With Glatiramer acetate [GA] as the substance, how does the “average ARR in GA-treated predicted responders lower than in patients predicted as non-responders” value [1, 3] read?
A: 76%

Q: And the “average ARR in GA-treated predicted responders lower than in the whole study population” value [1, 3]?
A: 64%

Q: What about the “reduction of annualized relapse rate (ARR) in genetically predicted responders compared to all patients” value ([1]; FM1 model, p(Response) threshold 0.5, full cohort of 599 FORTE patients) of the same substance?
A: 62%

Q: What about the “reduction of annualized relapse rate (ARR) in genetically predicted responders compared to non-responders” value ([1]; FM1 model, p(Response) threshold 0.5, full cohort of 599 FORTE patients, p<0.0001) of the same substance?
A: 76%

Q: And the “ARR Vs. all” value ([1]; model FM1, response prediction All)?
A: 100%

Q: And the ARR ([1]; model FM1, response prediction All (whole FORTE study population, threshold NA))?
A: 0.241

Q: What about the “ARR Vs. all” value ([1]; model FM1a, response prediction All) of the same substance?
A: 100%

Q: What about the ARR ([1]; model FM1a, response prediction All (whole FORTE study population, threshold NA)) of the same substance?
A: 0.245

Q: And the “ARR Vs. all” value ([1]; model FM2, response prediction All)?
A: 100%

Q: And the ARR ([1]; model FM2, response prediction All (whole FORTE study population, threshold NA))?
A: 0.245

Q: What about the “ARR Vs. all” value ([1]; model GM1003, response prediction All) of the same substance?
A: 100%

Q: And the ARR ([1]; model GM1003, response prediction All (whole FORTE study population, threshold NA))?
A: 0.26

Q: What about the “ARR Vs. all” value ([1]; model GM1006, whole study population (All)) of the same substance?
A: 100%

Q: What about the ARR ([1]; model GM1006, whole study population (All), FORTE cohort, 599 patients) of the same substance?
A: 0.253

Q: And the “ARR Vs. all” value ([1]; model GM1011, whole study population (All))?
A: 100%

Q: What about the ARR ([1]; model GM1011, whole study population (All), FORTE cohort, 599 patients) of the same substance?
A: 0.256

Q: What about the “ARR Vs. all” value ([1]; model GM1012, whole study population (All)) of the same substance?
A: 100%

Q: What about the ARR ([1]; model GM1012, whole study population (All), FORTE cohort, 599 patients) of the same substance?
A: 0.251

Q: What about the “ARR Vs. all” value ([1]; model GM2004, whole study population (All)) of the same substance?
A: 100%

Q: What about the ARR ([1]; model GM2004, whole study population (All), FORTE cohort, 599 patients) of the same substance?
A: 0.255

Q: What about the ARR [1, 4] of the same substance?
A: 0.256

Q: And the “ARR Vs. all” value [1, 4]?
A: 100%

Q: And the ARR [1, 5]?
A: 0.254

Q: And the “ARR Vs. all” value [1, 5]?
A: 100%

Q: What about the ARR [1, 6] of the same substance?
A: 0.251

Q: What about the “ARR Vs. all” value [1, 6] of the same substance?
A: 100%

Q: And the ARR [1, 7]?
A: 0.258

Q: And the “ARR Vs. all” value [1, 7]?
A: 100%

Q: And the ARR ([1]; model GM2338, response prediction All (whole study population), threshold NA, FORTE cohort)?
A: 0.251

Q: And the “ARR Vs. all” value ([1]; model GM2338, response prediction All, threshold NA, FORTE cohort)?
A: 100%

Q: And the ARR ([1]; model GM3102, response prediction All (whole study population), threshold NA, FORTE cohort)?
A: 0.263

Q: What about the “ARR Vs. all” value ([1]; model GM3102, response prediction All, threshold NA, FORTE cohort) of the same substance?
A: 100%

Q: What about the ARR ([1]; model GM3150, response prediction All (whole study population), threshold NA, FORTE cohort) of the same substance?
A: 0.26

Q: And the “ARR Vs. all” value ([1]; model GM3150, response prediction All, threshold NA, FORTE cohort)?
A: 100%

Q: What about the ARR ([1]; model GM3332, response prediction All (whole study population), threshold NA, FORTE cohort) of the same substance?
A: 0.262

Q: And the “ARR Vs. all” value ([1]; model GM3332, response prediction All, threshold NA, FORTE cohort)?
A: 100%

Q: What about the “average ARR in GA-treated predicted responders lower than in patients predicted as non-responders” value [2] of the same substance?
A: 81%

Q: What about the “average ARR in GA-treated predicted responders lower than in the whole study population” value [2] of the same substance?
A: 77%

Q: What about the “reduction in average ARR by GA over placebo-treated patients in the responders population” value [2] of the same substance?
A: 79%

Q: What about the response rate (RRMS patients; DRB1*1501 carriers) of the same substance?
A: 81.8%

Q: What about the response rate (RRMS patients; non-carriers of DRB1*1501) of the same substance?
A: 39.4%

Q: What about the response rate (RRMS patients; whole study population) of the same substance?
A: 50%

Q: What about the tolerability (RRMS subjects; daily standard dose of 20 mg) of the same substance?
A: generally well tolerated

Q: What about the “reduction of relapse rate compared with placebo” value (RRMS subjects; largest controlled study, GA 20 mg, RRMS) of the same substance?
A: 32%

Q: What about the relapse rate (RRMS subjects; largest controlled study, under GA 20 mg (1.98 under placebo)) of the same substance?
A: 1.34

Q: And the “median cumulative number of Gd-enhancing lesions” value (RRMS subjects; over 9 months of treatment, 20 mg group (17 under placebo))?
A: 11 lesions
